Source: patent US20230293517A1, “ANTAGONIST COMPOUNDS” (AdoRx Therapeutics Limited, priority 2020, published 2023)

How the values were obtained:
[1] = target: human Adenosine A3 receptor (Homo sapiens (Human), UniProt P0DMS8); experiment: Adenosine receptor TR-FRET binding assay (A3); conditions: inhibition of binding of 100 nM CA200645, CHO cell membranes
Outline: (§1)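 Competition binding measured by TR-FRET between terbium-labelled receptors (CHO membranes, human) and fluorescent XAC, CA200645, used at 30 nM for A2b and 100 nM elsewhere. Room temperature, 2 h. Reported as Ki (Cheng–Prusoff).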

[2] = tested on: immature monocyte-derived dendritic cells (MoDC); experiment: MoDC pCREB assay; format: cell-based, human; conditions: Homo sapiens, Dendritic cell; pCREB in immature MoDC, 1 μM NECA, rolipram
Outline: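 Human CD14+ monocytes differentiated 5 days into immature MoDC, pre-incubated 15 min at 37 °C with antagonist plus rolipram, then stimulated with 1 μM NECA for 45 min at 37 °C. Phospho-CREB measured by flow cytometry in gated CD209+/CD86− low cells; IC50 from the inflection point of a sigmoidal curve.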

human PBMCs = experiment: CD3/CD28 stimulated IL-2 release NECA reversal assay in human PBMCs; format: cell-based; conditions: PBMC, 1 uM NECA, 24 hours, IL-2 in culture supernatant
Outline: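 PBMCs from citrated healthy-donor blood plated at 50,000 cells/well on 1 ug/ml CD3 antibody with 1 ug/ml CD28 antibody, 1 uM NECA and 0.003-10 μM antagonist (final), 24 h at 37° C. Supernatant IL-2 measured by MSD immunoassay; % inhibition set against no-NECA control wells as 100%.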

[3] = target: human Adenosine A2b receptor (Homo sapiens (Human), UniProt P29275); experiment: Adenosine receptor TR-FRET binding assay (A2b); conditions: TR-FRET, inhibition of binding of 30 nM CA200645, CHO cell membranes
human Adenosine A2b receptor, sequence (P29275 whole entry): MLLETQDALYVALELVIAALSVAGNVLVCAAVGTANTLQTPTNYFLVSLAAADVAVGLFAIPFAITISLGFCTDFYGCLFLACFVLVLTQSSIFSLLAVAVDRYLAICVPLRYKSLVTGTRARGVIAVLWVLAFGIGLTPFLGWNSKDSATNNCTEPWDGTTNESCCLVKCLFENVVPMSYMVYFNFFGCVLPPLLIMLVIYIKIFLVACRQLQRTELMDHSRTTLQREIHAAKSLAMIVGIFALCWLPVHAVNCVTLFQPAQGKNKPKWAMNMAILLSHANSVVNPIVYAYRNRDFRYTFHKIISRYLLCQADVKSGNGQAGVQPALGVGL
Outline: as §1

[4] = target: human Adenosine A2a receptor (Homo sapiens (Human), UniProt P29274); experiment: Adenosine receptor TR-FRET binding assay (A2a); conditions: inhibition of binding of 100 nM CA200645, CHO cell membranes
human Adenosine A2a receptor, sequence (P29274 whole entry): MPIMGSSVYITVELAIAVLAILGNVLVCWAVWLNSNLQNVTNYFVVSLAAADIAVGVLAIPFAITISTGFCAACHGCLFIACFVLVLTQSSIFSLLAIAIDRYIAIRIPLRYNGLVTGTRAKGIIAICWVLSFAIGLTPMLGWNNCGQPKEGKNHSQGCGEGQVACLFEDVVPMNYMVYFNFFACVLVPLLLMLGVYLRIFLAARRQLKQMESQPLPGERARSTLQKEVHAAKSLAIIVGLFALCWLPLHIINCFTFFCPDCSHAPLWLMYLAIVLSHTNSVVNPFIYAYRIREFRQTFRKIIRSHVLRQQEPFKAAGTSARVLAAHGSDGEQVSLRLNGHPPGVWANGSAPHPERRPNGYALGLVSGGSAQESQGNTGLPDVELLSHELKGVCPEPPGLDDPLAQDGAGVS
Outline: as §1

[5] = target: human Adenosine A1 receptor (Homo sapiens (Human), UniProt P30542); experiment: Adenosine receptor TR-FRET binding assay (A1); conditions: inhibition of binding of 100 nM CA200645, CHO cell membranes
human Adenosine A1 receptor, sequence (P30542 whole entry): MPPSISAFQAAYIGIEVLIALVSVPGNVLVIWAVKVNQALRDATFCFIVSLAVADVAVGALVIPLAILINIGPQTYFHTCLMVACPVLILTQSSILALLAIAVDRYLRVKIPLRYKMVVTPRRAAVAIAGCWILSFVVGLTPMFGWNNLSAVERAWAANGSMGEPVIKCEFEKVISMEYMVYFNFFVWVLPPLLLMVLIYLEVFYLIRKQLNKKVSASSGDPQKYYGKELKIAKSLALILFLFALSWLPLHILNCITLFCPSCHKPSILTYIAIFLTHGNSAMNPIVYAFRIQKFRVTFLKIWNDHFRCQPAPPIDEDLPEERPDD
Outline: as §1

[6] = tested on: CD8+T cells in human whole blood; experiment: Measurement of pCREB in CD8+T cells in human whole blood; format: cell-based; conditions: 3 μM NECA, rolipram
Outline: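 Heparinised human whole blood pre-incubated 20 min at 37 °C with serially diluted A2a antagonists plus rolipram, then stimulated 60 min with 3 μM NECA (final). After fixation and red-cell lysis, white cells were permeabilized and stained for phospho-CREB and CD8; pCREB in CD8+ T cells measured by flow cytometry.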

human Adenosine A3 receptor, sequence (P0DMS8 whole entry): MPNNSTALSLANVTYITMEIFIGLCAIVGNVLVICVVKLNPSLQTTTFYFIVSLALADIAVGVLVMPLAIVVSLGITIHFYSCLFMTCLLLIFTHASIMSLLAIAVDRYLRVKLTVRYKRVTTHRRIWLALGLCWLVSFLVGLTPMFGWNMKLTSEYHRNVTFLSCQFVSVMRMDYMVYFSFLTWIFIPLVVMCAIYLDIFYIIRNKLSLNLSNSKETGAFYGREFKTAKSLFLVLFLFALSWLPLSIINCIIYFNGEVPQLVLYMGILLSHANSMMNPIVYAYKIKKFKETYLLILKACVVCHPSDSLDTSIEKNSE

Row | SMILES | Ki [1] | IC50 [2] | IC50 (human PBMCs) | Ki [3] | Ki [4] | Ki [5] | IC50 [6]
1 | Cc1cc(-c2sc(NC(=O)N3CCOC[C@H]3C)nc2-c2cccc(C#N)c2)cc(C)n1 [Example 6.74, (3R)-N-[4-(3-Cyanophenyl)-5-(2,6-dimethyl-4-pyridyl)thiazol-2-yl]-3-methyl-morpholine-4-carboxamide] | 219 nM | 1 nM | 5.6 nM | 1.9 nM | 0.63 nM | 23 nM | 240 nM
2 | Cc1cc(-c2sc(NC(=O)N3CCC4(COC4)C3)nc2-c2cccc(C#N)c2)cc(C)n1 [Example 6.81, N-[4-(3-Cyanophenyl)-5-(2,6-dimethyl-4-pyridyl)thiazol-2-yl]-2-oxa-7-azaspiro[3.4]octane-7-carboxamide] | 292 nM | 19 nM | 7.6 nM | 2.3 nM | 0.47 nM | 49 nM | 230 nM
3 | Cc1cc(-c2sc(NC(=O)N3CC4(CCN(C)C4=O)C3)nc2-c2cccc(C#N)c2)cc(C)n1 [Example 6.92, N-[4-(3-Cyanophenyl)-5-(2,6-dimethyl-4-pyridyl)thiazol-2-yl]-6-methyl-5-oxo-2,6-diazaspiro[3.4]octane-2-carboxamide] | 98 nM | 11 nM | 1.2 nM | 2.6 nM | 0.39 nM | 66 nM | 30 nM
4 | Cc1cc(-c2sc(NC(=O)N3CC4(CCO4)C3)nc2-c2cccc(C#N)c2)cc(C)n1 [Example 6.93, N-[4-(3-Cyanophenyl)-5-(2,6-dimethyl-4-pyridyl)thiazol-2-yl]-1-oxa-6-azaspiro[3.3]heptane-6-carboxamide] | 161 nM | 9 nM | 1.3 nM | 1.5 nM | 0.31 nM | 44 nM | 50 nM
5 | Cc1cc(-c2sc(NC(=O)N3CC4(COC4)C3)nc2-c2cccc(C#N)c2)cc(C(F)(F)F)n1 [Example 6.99, N-[4-(3-Cyanophenyl)-5-[2-methyl-6-(trifluoromethyl)-4-pyridyl]thiazol-2-yl]-2-oxa-6-azaspiro[3.3]heptane-6-carboxamide] | 77 nM | 8 nM | 0.7 nM | 0.7 nM | 0.13 nM | 14 nM | 40 nM
6 | Cc1cc(-c2sc(NC(=O)N3CCC(C#N)(C#N)CC3)nc2-c2cccc(C#N)c2)cc(CO)n1 [Example 9.8] | 615 nM | 8 nM | 0.7 nM | 2.4 nM | 0.37 nM | 24 nM | 10 nM
7 | Cc1cc(-c2sc(NC(=O)N3CC4(COC4)C3)nc2-c2cccc(C#N)c2)cc(C(C)(C)O)n1 [Example 12.2, N-[4-(3-Cyanophenyl)-5-[2-(1-hydroxy-1-methyl-ethyl)-6-methyl-4-pyridyl]thiazol-2-yl]-2-oxa-6-azaspiro[3.3]heptane-6-carboxamide] | 1520 nM | 55 nM | 0.4 nM | 8.4 nM | 0.28 nM | 6 nM | 10 nM
8 | Cc1cc(-c2sc(NC(=O)N3CC4(COC4)C3)nc2-c2cccc(C#N)c2)cc(CF)n1 [Example 16.6] | 985 nM | 13 nM | 2.6 nM | 1.6 nM | 0.16 nM | 42 nM | 100 nM
9 | Cc1cc(-c2sc(NC(=O)N3CC4(COC4)C3)nc2-c2cccc(C#N)c2)cc(C2CC2)n1 [Example 16.7] | 478 nM | 14 nM | 0.9 nM | 1.6 nM | 0.13 nM | 13 nM | 60 nM
10 | Cc1cc(-c2sc(NC(=O)N3CCC(C)(C#N)CC3)nc2-c2cccc(C#N)c2)cc(CO)n1 [Example 24, 4-Cyano-N-[4-(3-cyanophenyl)-5-[2-(hydroxymethyl)-6-methyl-4-pyridyl]thiazol-2-yl]-4-methyl-piperidine-1-carboxamide] | 683 nM | 21 nM | 1.6 nM | 2.7 nM | 0.24 nM | 71 nM | 20 nM
11 | Cc1cc(-c2sc(NC(=O)N3CC[C@](C)(C#N)C3)nc2-c2cccc(C#N)c2)cc(C)n1 [Example 27b, (3S)-3-cyano-N-[4-(3-cyanophenyl)-5-(2,6-dimethyl-4-pyridyl)thiazol-2-yl]-3-methyl-pyrrolidine-1-carboxamide] | 271 nM | 4 nM | 1 nM | 1 nM | 0.14 nM | 33 nM | 40 nM
12 | [2H]C([2H])([2H])c1cc(-c2sc(NC(=O)N3CCC(C)(C#N)CC3)nc2-c2cccc(C#N)c2)cc(C([2H])([2H])[2H])n1 [Example 28, N-[5-[2,6-Bis(trideuteriomethyl)-4-pyridyl]-4-(3-cyanophenyl)thiazol-2-yl]-4-cyano-4-methyl-piperidine-1-carboxamide] | 381 nM | 9 nM | 0.4 nM | 1 nM | 0.09 nM | 30 nM | 60 nM
